In ChEMBL document CHEMBL3886800, “Disubstituted 3,4-diamino-3-cyclobutene-1,2-dione compounds for use in the treatment of chemokine-mediated diseases” (2016):

Experiments:
[1] = molecular target: T1, C-X-C chemokine receptor type 1 (Homo sapiens, UniProt P25024); test: (§1) In Vitro Affinity Assay: ⿿PathHunter HEK293-CXCR2⿝ or ⿿U2OS hCXCR1 β-arrestin⿝ cells (DiscoveRx Corporation) were seeded overnight at 10 000 cells/well (384-well format) in 20 μl of Opti MEM I medium. A preincubation with the antagonist or the vehicle for 30 min at 37° C. and 5% CO2 was followed by 60 minutes of stimulation with CXCL8 at 37° C. and 5% CO2. The cells were then placed at ambient temperature for 30 minutes. The PathHunter detection reagent (DiscoveRx Corporation) was added. After incubation for 60 min at ambient temperature, the […] during the β-arrestin-CXCR2 interaction was measured for 0.3 s in an Envision 2102 Multilabel Reader (PerkinElmer Life and Analytical Sciences).
T1 sequence (P25024 whole entry): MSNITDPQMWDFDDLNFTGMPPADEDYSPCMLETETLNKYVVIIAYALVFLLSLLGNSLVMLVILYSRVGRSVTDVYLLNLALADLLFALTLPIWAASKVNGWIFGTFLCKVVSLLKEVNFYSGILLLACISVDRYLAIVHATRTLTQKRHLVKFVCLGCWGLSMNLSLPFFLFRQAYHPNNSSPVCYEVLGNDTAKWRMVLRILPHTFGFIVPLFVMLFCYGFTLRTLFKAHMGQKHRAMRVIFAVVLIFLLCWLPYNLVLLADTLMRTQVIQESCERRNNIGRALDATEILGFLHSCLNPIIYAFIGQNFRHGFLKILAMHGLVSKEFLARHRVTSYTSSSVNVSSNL

[2] = molecular target: T2, C-X-C chemokine receptor type 2 (Homo sapiens, UniProt P25025); test: as §1
T2 sequence (P25025 whole entry): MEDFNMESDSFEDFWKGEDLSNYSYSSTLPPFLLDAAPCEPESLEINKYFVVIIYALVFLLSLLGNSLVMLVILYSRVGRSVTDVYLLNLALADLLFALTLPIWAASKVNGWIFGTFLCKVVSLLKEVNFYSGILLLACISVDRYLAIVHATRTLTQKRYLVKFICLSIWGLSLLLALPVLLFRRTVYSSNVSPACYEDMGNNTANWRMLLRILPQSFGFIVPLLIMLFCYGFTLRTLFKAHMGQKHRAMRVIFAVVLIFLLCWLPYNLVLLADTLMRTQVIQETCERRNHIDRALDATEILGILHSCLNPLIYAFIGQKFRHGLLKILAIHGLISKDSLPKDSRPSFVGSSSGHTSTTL

Row | SMILES | IC50 [1] [nM] | IC50 [2] [nM]
1 | Cc1ccc(C(Nc2c(Nc3cccnc3O)c(=O)c2=O)C2CCCS2)o1 (centres undefined) | 652 | 23
2 | Cc1ccc(C(Nc2c(Nc3ccc(Cl)c(C(=O)N(C)C)c3O)c(=O)c2=O)C2CCCS2)o1 (single isomer, unassigned) | 113 | 69
